Columns and labels:
[1] = tested on: 26 month-old mice; assay: Mouse Cytokine Array Panel on plasma of aged mice; type: in vivo; details: 50 mg/kg BID P.O. one week, 10 of 40 cytokines detectable
Method: The mice were handled in accordance with principles and guidelines established by the “Guide for the Care and Use of Laboratory Animals” and overseen by the BioAge Lab's institutional animal care and use committee (IACUC). Mice were housed conventionally in a constant temperature (20-22° C.) and humidity (40%-60%) animal room with a 12/12 h light/dark cycle and free access to food and water. 26 month-old mice were randomized based on the body weight and body condition scores to two groups (vehicle or BGE-105, n=8). 4 month-old female mice were used as an additional control group (vehicle, n=4). Mice were administered P.O. vehicle or BGE-105 at 50 mg/kg (BID) for one week. After completion of dosing, blood samples were collected via retro-orbital bleeding under isoflurane anesthesia into K2-EDTA tubes to prevent coagulation. Mice were euthanized via transcardiac perfusion under isoflurane anesthesia. Whole blood was centrifuged to isolate plasma, which was stored at −80° C. until further experimentation.
For qualitative analysis of 40 different cytokines, plasma samples were assessed with the Mouse Cytokine Array Panel (R&D Systems) according to manufacturer's instructions. […] The optical of each dot on the array serves as a relative measure of cytokine abundance (e.g., a more intensely-stained dot denotes more cytokine present in the sample) and was analyzed with ImageJ software (NIH).

[2] = tested on: SOD1^G93A mice; assay: ICV administration in SOD1^G93A mouse model of ALS; type: in vivo; details: ICV via Alzet minipumps, 1 month
Method: The study accesses the effects of BGE-105 in a mouse model of ALS. The study establishes pharmacokinetic/pharmacodynamic features of intracerebroventricular (ICV) administration of BGE-105 in wildtype C57BL/6J mice. Multiple doses across multiple timepoints are tested to determine drug characteristics within the central nervous system (CNS). BGE-105 is administered to SOD1^G93A mice using Alzet minipumps connected to ICV cannulas.
Astrocyte reactivity, driven by IL-la/TNFα/C1q-mediated neurotoxicity, contributes to spinal cord motor neuron death and motor dysfunction in mouse models of ALS. […] This study first validates intraventricular administration of BGE-105 into wildtype mice to establish CNS-specific drug properties and guide optimal dose selection. Next, the efficacy of CNS delivery of BGE-105 to minimize motor neuron death, improve motor function, and extend lifespan in the SOD1^G93A mouse model of ALS is tested. For experiments in vivo, BGE-105 are administered to SOD1^G93A mice using Alzet minipumps. Alzet minipumps are implanted at 4 months of age, followed by 1 month of continuous administration of BGE-105.
Analyses of motoric, behavioral, and survival endpoints are measured. Brain, spinal cord, and skeletal muscle are dissected post mortem for histochemical and transcriptomic analyses to determine target engagement and mechanisms of action.
Alzet minipumps connected to intraventricular cannulas are utilized for continuous CNS delivery of BGE-105, akin to previous studies on APJ agonism in the CNS (Zhu et al., 2020. Apelin-36 mediates neuroprotective effects by regulating oxidative stress, autophagy and apoptosis in MPTP-induced Parkinson's disease model mice, Brain Research, Volume 1726, 2020, 146493, ISSN 0006-8993). 4-month-old SOD1^G93A mice (C57BL/6J background; strain #004435, Jackson Laboratory) of both sexes (n=12/group; 6 male, 6 female) are randomized into vehicle or two separate treatment groups before undergoing baseline motor behavior assessments including the open field, grid hang, beam walk, and accelerating rotarod. […]

[3] = tested on: 26-month-old female C57BL/6 mice; assay: Age-dependent BBB permeability model, Evans blue assay; type: in vivo, mouse; details: 50 mg/kg BID P.O. one week; aged versus aged+BGE-105; p<0.01
Method: The mice were handled in accordance with principles and guidelines established by the “Guide for the Care and Use of Laboratory Animals” and overseen by the BioAge Lab's institutional animal care and use committee (IACUC). Mice were housed conventionally in a constant temperature (20-22° C.) and humidity (40%-60%) animal room with a 12/12 h light/dark cycle and free access to food and water.
For assessment of BGE-105 activity, the age-dependent BBB permeability model was established using 26-month-old female C57BL/6 mice. Mice were randomized based on the body weight and body condition scores to two groups (vehicle or BGE-105, n=8). Mice were administered P.O. vehicle (Control) or BGE-105 via P.O. at 50 mg/kg (BID) for one week (7 days). See FIG. 4B for a schematic of the protocol. The BBB permeability was measured via Evans blue assay. Mice were intravenously injected with Evans Blue (2%, 75 ul/30 g BW). […]
Frozen olfactory bulb and hippocampus were placed in 200 μl of extraction buffer (50% trichloroacetic acid in formamide) for 24 hours. […] Endpoint fluorescence was recorded (620 nm excitation, 680 nm emission) with a SpectraMax iD5 (Molecular Devices), normalized to tissue weight, and relative treatment-related change in fluorescence (a measure of blood-brain barrier leakage) was calculated compared to untreated aged mice.

COc1cccc(OC)c1-n1c(NS(=O)(=O)[C@@H](C)[C@H](C)c2ncc(C)cn2)nnc1-c1cncc(C)c1 [BGE-105, (2S,3R)—N-(4-(2,6-dimethoxyphenyl)-5-(5-methyl-3-pyridinyl)-4H-1,2,4-triazol-3-yl)-3-(5-methyl-2-pyrimidinyl)-2-butanesulfonamide] was tested, and the “average decrease of optical density of the detectable cytokines in plasma cytokine array” value [1] was 28%, the lifespan [2] was “extends lifespan” and the motor function [2] was “improves motor function”. For the same molecule, the motor neuron death [2] was “minimizes motor neuron death” and the “change of age-induced increase in BBB permeability in the OB” value [3] was −28%.

— US20240041878A1, “APELIN RECEPTOR MODULATORS FOR TREATMENT OF A DISORDER OR DISEASE ASSOCIATED WITH BBB PERMEABILITY” (BioAge Labs, Inc., priority 2022, published 2024)
